Test results from patent US20100061982A1, “3-SUBSTITUTED-1H-INDOLE, 3-SUBSTITUTED-1H-PYRROLO[2,3-B]PYRIDINE AND 3-SUBSTITUTED-1H-PYRROLO[3,2-B]PYRIDINE COMPOUNDS, THEIR USE AS MTOR KINASE AND PI3 KINASE INHIBITORS, AND THEIR SYNTHESES” (priority 2008, published 2010).
Converted amounts (≈) assume the structure as drawn. Like-named read-outs stand apart in the source and are kept apart here.

Tests used:
[1] = PAMPA permeability pH 7.4
[2] = Buffer Stability (37° C.)
[3] = Microsome Stability (15 min), rat; type: in vitro ADME; conditions: microsomes
[4] = Microsome Stability (15 min), nude mouse; type: in vitro ADME; conditions: nude, mouse, microsomes
[5] = Microsome Stability (15 min), human; type: in vitro ADME; conditions: microsomes
mTOR = mTOR (Homo sapiens, UniProt P42345); assay: mTOR Enzyme Assay (DELFIA, purified enzyme); type: biochemical; design: FLAG
[6] = CACO2 permeability a-b/b-a; type: in vitro ADME; conditions: human, Caco-2
[7] = In vivo blood/plasma and tumor levels of prodrug and metabolites after 50 mg, kg po; conditions: 50 mg
Solubility pH 7.4 = conditions: pH 7.4, aqueous buffer
PI3K alpha = PI3K alpha (Homo sapiens, UniProt P42336); assay: PI3K-alpha Fluorescence Polarization Assay; type: biochemical
[8] = Plasma Stability (37° C.), nude mouse
[9] = Plasma Stability (37° C.), rat
[10] = Phase I (NADPH), read-out: Microsome Stability (15 min) T ½ Phase I rat
[11] = value after the slash in Table VIc, read-out: Microsome Stability (15 min) T ½ rat, second value of cell
[12] = Phase I (NADPH), read-out: Microsome Stability (15 min) T ½ Phase I nude mouse
[13] = value after the slash in Table VIc, read-out: Microsome Stability (15 min) T ½ nude mouse, second value of cell
[14] = Phase I (NADPH), read-out: Microsome Stability (15 min) T ½ Phase I human
[15] = value after the slash in Table VIc, read-out: Microsome Stability (15 min) T ½ human, second value of cell

PI3K alpha, sequence (P42336 whole entry, species assumed): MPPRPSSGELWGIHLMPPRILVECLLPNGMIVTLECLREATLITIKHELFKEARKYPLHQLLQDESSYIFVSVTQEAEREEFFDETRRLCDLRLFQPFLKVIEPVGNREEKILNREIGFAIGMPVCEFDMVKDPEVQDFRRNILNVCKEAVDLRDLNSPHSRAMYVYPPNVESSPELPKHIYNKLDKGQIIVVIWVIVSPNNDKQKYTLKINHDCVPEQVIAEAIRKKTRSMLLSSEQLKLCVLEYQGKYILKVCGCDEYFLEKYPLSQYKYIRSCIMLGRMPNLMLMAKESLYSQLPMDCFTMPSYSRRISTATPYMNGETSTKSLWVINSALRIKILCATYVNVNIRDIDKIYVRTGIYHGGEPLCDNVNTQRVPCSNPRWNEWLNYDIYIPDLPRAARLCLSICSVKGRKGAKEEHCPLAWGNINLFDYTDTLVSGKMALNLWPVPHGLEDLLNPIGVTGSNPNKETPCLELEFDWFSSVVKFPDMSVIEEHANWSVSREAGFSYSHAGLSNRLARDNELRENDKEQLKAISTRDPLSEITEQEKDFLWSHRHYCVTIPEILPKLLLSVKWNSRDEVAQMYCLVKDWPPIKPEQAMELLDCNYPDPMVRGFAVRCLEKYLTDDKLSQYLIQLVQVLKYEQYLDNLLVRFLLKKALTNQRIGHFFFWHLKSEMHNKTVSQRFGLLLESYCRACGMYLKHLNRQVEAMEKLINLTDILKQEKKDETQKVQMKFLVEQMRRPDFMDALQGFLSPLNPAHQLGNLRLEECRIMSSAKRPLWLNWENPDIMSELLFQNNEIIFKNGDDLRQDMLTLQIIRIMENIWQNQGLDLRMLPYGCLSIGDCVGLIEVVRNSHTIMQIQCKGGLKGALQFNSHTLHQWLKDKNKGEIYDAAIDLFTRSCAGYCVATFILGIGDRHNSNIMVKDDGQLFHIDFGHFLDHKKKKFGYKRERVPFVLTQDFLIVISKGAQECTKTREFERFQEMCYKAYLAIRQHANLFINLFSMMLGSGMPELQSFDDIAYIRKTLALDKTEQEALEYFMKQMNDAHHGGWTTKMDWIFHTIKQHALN
PI3K alpha, sequence (P27986 whole entry partner, species assumed): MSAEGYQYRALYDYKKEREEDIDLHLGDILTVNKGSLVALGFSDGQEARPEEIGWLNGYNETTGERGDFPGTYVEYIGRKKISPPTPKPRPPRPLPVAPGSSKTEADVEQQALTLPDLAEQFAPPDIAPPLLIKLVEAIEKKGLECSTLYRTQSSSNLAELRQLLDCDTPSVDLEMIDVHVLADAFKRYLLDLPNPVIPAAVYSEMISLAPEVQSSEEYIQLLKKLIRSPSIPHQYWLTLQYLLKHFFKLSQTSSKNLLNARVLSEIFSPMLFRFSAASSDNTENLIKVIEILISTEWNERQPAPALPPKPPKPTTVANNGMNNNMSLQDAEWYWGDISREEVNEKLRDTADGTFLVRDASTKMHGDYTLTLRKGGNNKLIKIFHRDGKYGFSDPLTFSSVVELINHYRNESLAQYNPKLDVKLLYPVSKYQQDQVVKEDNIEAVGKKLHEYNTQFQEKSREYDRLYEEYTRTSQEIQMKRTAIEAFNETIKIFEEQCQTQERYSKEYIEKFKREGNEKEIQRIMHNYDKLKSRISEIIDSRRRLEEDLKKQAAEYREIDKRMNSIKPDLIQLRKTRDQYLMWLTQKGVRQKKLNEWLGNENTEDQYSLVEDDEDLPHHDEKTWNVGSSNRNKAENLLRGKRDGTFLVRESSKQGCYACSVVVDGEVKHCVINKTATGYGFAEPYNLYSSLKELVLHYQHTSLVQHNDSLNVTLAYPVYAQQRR

| SMILES | Buffer Stability (37° C.) % Remaining (at 16-23 hours) SGF [2] [%] | Buffer Stability (37° C.) % Remaining (at 16-23 hours) SIF [2] [%] | Buffer Stability (37° C.) % Remaining (at 16-23 hours) pH 1 [2] [%] | Buffer Stability (37° C.) % Remaining (at 16-23 hours) pH 4.5 [2] [%] | Buffer Stability (37° C.) % Remaining (at 16-23 hours) pH 6.6 [2] [%] | Buffer Stability (37° C.) % Remaining (at 16-23 hours) pH 7.4 [2] [%] | Buffer Stability (37° C.) % Remaining (at 16-23 hours) pH 9 [2] [%] | half-life [3, 10] [min] | half-life [4, 12] [min] | half-life [5, 14] [min] | IC50 (PI3K alpha; read-out: PI3K alpha Mean IC50) [nM] | PAMPA Pe [1] | IC50 (mTOR; read-out: mTOR Mean IC50) [nM] | solubility (Solubility pH 7.4) [µg/mL] | IC50 (PI3K alpha) [nM] | further results |
| --- | --- | --- | --- | --- | --- | --- | --- | --- | --- | --- | --- | --- | --- | --- | --- | --- |
| COc1ccc2[nH]c(-c3ccccc3)c(C=C3Oc4cc(O)cc(O)c4C3=O)c2c1 [4,6-dihydroxy-2-[(5-methoxy-2-phenyl-1H-indol-3-yl)methylene]-1-benzofuran-3(2H)-one] | 95 | 77 | 97 | 96 | 83 | 68 | 72 | > 30 | 29 | 24 |  | 0 10e−6 cm/s | 80 |  |  | half-life [3, 11]: 5 min; half-life [4, 13]: 5 min; half-life [5, 15]: 5 min; Papp A→B ([6]; a − b (first value of cell), read-out: CACO2 Pe a − b): 1.25 ×10⁻⁶ cm/s; Papp B→A ([6]; b − a (second value of cell), read-out: CACO2 Pe b − a): 6.65 ×10⁻⁶ cm/s; plasma prodrug, Dosed @ 50 mg, kg po (precursor phenolic compound dosed) ([7]; 1 h conc.): bql, bql*; plasma prodrug, Dosed @ 50 mg, kg po (precursor phenolic compound dosed) ([7]; 4 h conc.): bql, bql* |
| COc1ccc2c(c1)c(/C=C1\Oc3cc(OC(=O)N4CCOCC4)cc(OC(=O)N4CCOCC4)c3C1=O)cn2CCCN(C)C [Example 1, (2Z)-2-({1-[3-(dimethylamino)propyl]-5-methoxy-1H-indol-3-yl}methylene)-3-oxo-2,3-dihydro-1-benzofuran-4,6-diyl dimorpholine-4-carboxylate] |  |  |  |  |  |  |  | > 30 |  |  |  | 1.4 10e−6 cm/s | > 4000 | > 100 | > 10000 |  |
| CCOC(=O)CNC(=O)Oc1ccc2c(c1)O/C(=C\c1cn(CCCN(C)C)c3ccc(OC)cc13)C2=O [Example 25, ethyl N-({[(2Z)-2-({1-[3-(dimethylamino)propyl]-5-methoxy-1H-indol-3-yl}methylene)-3-oxo-2,3-dihydro-1-benzofuran-6-yl]oxy}carbonyl)glycinate] |  |  |  |  |  |  |  |  |  |  |  | 0 10e−6 cm/s | 610 | > 100 | 86 |  |
| COc1ccc2[nH]c(-c3ccccc3)c(/C=C3\Oc4cc(OP(=O)(O)c5ccccc5)ccc4C3=O)c2c1 [Example 26, (2Z)-2-[(5-methoxy-2-phenyl-1H-indol-3-yl)methylene]-3-oxo-2,3-dihydro-1-benzofuran-6-yl hydrogen phenylphosphonate] |  |  |  |  |  |  |  | > 30 |  |  |  | 0 10e−6 cm/s | 2200 | 11 (≈ 21 µM) | 108 |  |
| COc1ccc2c(c1)c(/C=C1\Oc3cc(OC(=O)N4CCN(C)CC4)cc(OC(=O)N4CCN(C)CC4)c3C1=O)cn2CCCN(C)C [Example 36, (2Z)-2-({1-[3-(dimethylamino)propyl]-5-methoxy-1H-indol-3-yl}methylene)-3-oxo-2,3-dihydro-1-benzofuran-4,6-diyl bis(4-methylpiperazine-1-carboxylate)] |  |  |  |  |  |  |  |  |  |  |  | 0.23 10e−6 cm/s | 1080 | 36 (≈ 54.5 µM) | > 10000 |  |
| COc1ccc2c(c1)c(/C=C1\Oc3cc(O)cc(OC(=O)N(C)C)c3C1=O)c(C)n2CCN1CCN(C)CC1 [Example 39, (2Z)-6-hydroxy-2-({5-methoxy-2-methyl-1-[2-(4-methylpiperazin-1-yl)ethyl]-1H-indol-3-yl}methylene)-3-oxo-2,3-dihydro-1-benzofuran-4-yldimethylcarbamate] |  |  |  |  |  |  |  | 27 |  |  |  | 0 10e−6 cm/s |  | > 100 | 842 | IC50 (mTOR): > 4000 nM |
| CNC(=O)Oc1ccc2c(c1)C(=O)/C(=C/c1cn(CCN3CCN(C)CC3)c3ccc(OC)cc13)O2 [Example 45, (2Z)-2-({5-methoxy-1-[2-(4-methylpiperazin-1-yl)ethyl]-1H-indol-3-yl}methylene)-3-oxo-2,3-dihydro-1-benzofuran-5-yl methylcarbamate] |  |  |  |  |  |  |  | 9 |  |  |  | 0.43 10e−6 cm/s | > 4000 | 63 (≈ 128 µM) |  |  |

Further lines, with some results ahead:

| Buffer Stability (37° C.) % Remaining (at 16-23 hours) SGF [2] [%] | Buffer Stability (37° C.) % Remaining (at 16-23 hours) SIF [2] [%] | Buffer Stability (37° C.) % Remaining (at 16-23 hours) pH 1 [2] [%] | Buffer Stability (37° C.) % Remaining (at 16-23 hours) pH 4.5 [2] [%] | Buffer Stability (37° C.) % Remaining (at 16-23 hours) pH 6.6 [2] [%] | Buffer Stability (37° C.) % Remaining (at 16-23 hours) pH 7.4 [2] [%] | Buffer Stability (37° C.) % Remaining (at 16-23 hours) pH 9 [2] [%] | half-life [3, 10] [min] | half-life [4, 12] [min] | half-life [5, 14] [min] | IC50 (PI3K alpha; read-out: PI3K alpha Mean IC50) [nM] | SMILES | PAMPA Pe [1] | IC50 (mTOR; read-out: mTOR Mean IC50) [nM] | solubility (Solubility pH 7.4) [µg/mL] | IC50 (PI3K alpha) [nM] | further results |
| --- | --- | --- | --- | --- | --- | --- | --- | --- | --- | --- | --- | --- | --- | --- | --- | --- |
| 99 | 63 | 99 | 78 | 63 | 66 | 79 | 21 | > 30 | 11 |  | COc1ccc2c(c1)c(/C=C1\Oc3cc(O)cc(O)c3C1=O)c(C)n2CCN1CCN(C)CC1 [(2Z)-4,6-dihydroxy-2-({5-methoxy-2-methyl-1-[2-(4-methylpiperazin-1-yl)ethyl]-1H-indol-3-yl}methylene)-1-benzofuran-3(2H)-one] | 0 10e−6 cm/s | 22.5 | 32 (≈ 69 µM) |  | half-life [3, 11]: 6 min; half-life [4, 13]: 25 min; half-life [5, 15]: 17 min |
|  |  |  |  |  |  |  | 12 | 26 | 6 | 12.2 | COc1ccc2c(c1)c(/C=C1\Oc3cc(O)ccc3C1=O)c(C)n2CCN1CCN(C)CC1 [(2Z)-6-hydroxy-2-({5-methoxy-2-methyl-1-[2-(4-methylpiperazin-1-yl)ethyl]-1H-indol-3-yl}methylene)-1-benzofuran-3(2H)-one] | 0.01 10e−6 cm/s | 325 | 68 (≈ 152 µM) |  | half-life [3, 11]: 8 min; half-life [4, 13]: 20 min; half-life [5, 15]: 5 min |
| 66 | 0 | 2 | 64 | 0 | 0 | 0 | > 30 | 9 | 12 | 2 | COc1ccc2[nH]c(-c3ccccc3)c(/C=C3\Oc4cc(OC(C)=O)cc(OC(C)=O)c4C3=O)c2c1 [Example 3, (2Z)-2-[(5-methoxy-2-phenyl-1H-indol-3-yl)methylene]-3-oxo-2,3-dihydro-1-benzofuran-4,6-diyl diacetate] | 0 10e−6 cm/s |  |  |  | Plasma Stability (37° C.) % Remaining (3-3.5 hours) nude mouse [8]: 34%; Plasma Stability (37° C.) % Remaining (3-3.5 hours) rat [9]: 42% |
| 93 | 0 | 94 | 91 | 59 | 16 | 0 | 3 | > 30 | 5 | 896 | COc1ccc2[nH]c(-c3ccccc3)c(/C=C3\Oc4cc(OC(=O)OC(C)C)cc(OC(=O)OC(C)C)c4C3=O)c2c1 [Example 7, diisopropyl (2Z)-2-[(5-methoxy-2-phenyl-1H-indol-3-yl)methylene]-3-oxo-2,3-dihydro-1-benzofuran-4,6-diyl biscarbonate] | 0 10e−6 cm/s |  |  |  | Plasma Stability (37° C.) % Remaining (3-3.5 hours) nude mouse [8]: 22%; Plasma Stability (37° C.) % Remaining (3-3.5 hours) rat [9]: 0% |
| 95 | 0 | 86 | 92 | 72 | 44 | 0 | 12 |  | 19 | 2780 | COc1ccc2[nH]c(-c3ccccc3)c(/C=C3\Oc4cc(OC(=O)C(C)(C)C)cc(OC(=O)C(C)(C)C)c4C3=O)c2c1 [Example 10, (2Z)-2-[(5-methoxy-2-phenyl-1H-indol-3-yl)methylene]-3-oxo-2,3-dihydro-1-benzofuran-4,6-diyl bis(2,2-dimethylpropanoate)] | 0 10e−6 cm/s |  | 2 (≈ 3.52 µM) |  | Plasma Stability (37° C.) % Remaining (3-3.5 hours) nude mouse [8]: 0%; Plasma Stability (37° C.) % Remaining (3-3.5 hours) rat [9]: 6% |
